Test results taken from patent US8138168B1 (Takeda Pharmaceutical Company Limited, priority 2007, dated 2012).

Each compound was assayed against T1, Recombinant human renin (Homo sapiens, UniProt P00797) (assay: In vitro enzymatic activity assay of renin inhibitors (fluorogenic peptide substrate)). Conditions: read-out: IC50 of Exemplified Compounds Against Renin.
T1 construct: isolate the active form (residues 67-406); made in house; host or cells: FreeStyle 293-F cells (transient expression of pcDNA3.1(+)/hREN)
T1 sequence (P00797 67-406): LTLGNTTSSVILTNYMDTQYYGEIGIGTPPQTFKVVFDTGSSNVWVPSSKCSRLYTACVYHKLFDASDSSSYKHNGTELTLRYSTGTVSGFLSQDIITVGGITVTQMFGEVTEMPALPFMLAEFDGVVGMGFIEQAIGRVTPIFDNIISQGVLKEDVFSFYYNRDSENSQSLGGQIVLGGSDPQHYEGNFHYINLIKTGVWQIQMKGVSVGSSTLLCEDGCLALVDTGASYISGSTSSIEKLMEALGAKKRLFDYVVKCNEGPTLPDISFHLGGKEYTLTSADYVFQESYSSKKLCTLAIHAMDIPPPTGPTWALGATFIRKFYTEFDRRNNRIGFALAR
Type: biochemical
Method in brief: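 Enzyme: recombinant human renin, 3 nM final, 10 min compound pre-incubation at 37 °C; buffer 50 mM Hepes pH 7.4 with 0.1 mg/mL BSA or extra 2% BSA; 5% DMSO.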

| SMILES | IC50 |
| --- | --- |
| COCCCn1c([C@@H]2CCCN(C(=O)[C@@H]3CN(S(=O)(=O)c4cccc(-c5csc(C)n5)c4)C[C@H]3N)C2)nc2ccccc21 [Compound 364, ((3R,4S)-4-amino-1-(3-(2-methylthiazol-4-yl)phenylsulfonyl)pyrrolidin-3-yl)((R)-3-(1-(3-methoxypropyl)-1H-benzo[d]imidazol-2-yl)piperidin-1-yl)methanone] | 100 to 1000 nM |
| COCCCn1c([C@@H]2CCCN(C(=O)C[C@H](N)Cc3ccc(-c4csc(OC)n4)cc3)C2)nc2ccccc21 [Compound 201, (R)-3-amino-1-((R)-3-(1-(3-methoxypropyl)-1H-benzo[d]imidazol-2-yl)piperidin-1-yl)-4-(4-(2-methoxythiazol-4-yl)phenyl)butan-1-one] | < 100 nM |
| COCCCn1c([C@@H]2CCCN(C(=O)[C@@H]3CN(C(=O)Nc4cccc(OC)c4)C[C@H]3N)C2)nc2ccccc21 [Compound 367, (3S,4R)-3-amino-N-(3-methoxyphenyl)-4-((R)-3-(1-(3-methoxypropyl)-1H-benzo[d]imidazol-2-yl)piperidine-1-carbonyl)pyrrolidine-1-carboxamide] | 100 to 1000 nM |
| COCCCn1c([C@@H]2CCCN(C(=O)C[C@H](N)Cc3ccc(-c4cccnc4)cc3)C2)nc2ccccc21 [Compound 125, (R)-3-amino-1-((R)-3-(1-(3-methoxypropyl)-1H-benzo[d]imidazol-2-yl)piperidin-1-yl)-4-(4-(pyridin-3-yl)phenyl)butan-1-one] | < 100 nM |
| COCCCn1c([C@@H]2CCCN(C(=O)C[C@H](N)CNC(=O)Nc3ccccc3Oc3ccccc3)C2)nc2ccccc21 [Compound 272, 1-((S)-2-amino-4-((R)-3-(1-(3-methoxypropyl)-1H-benzo[d]imidazol-2-yl)piperidin-1-yl)-4-oxobutyl)-3-(2-phenoxyphenyl)urea] | 100 to 1000 nM |
| COCCCn1c([C@@H]2CCCN(C(=O)C[C@H](N)Cc3ccc(-c4cccnc4Cl)cc3)C2)nc2ccccc21 [Compound 167, (R)-3-amino-4-(4-(2-chloropyridin-3-yl)phenyl)-1-((R)-3-(1-(3-methoxypropyl)-1H-benzo[d]imidazol-2-yl)piperidin-1-yl)butan-1-one] | < 100 nM |
| COCCCn1c([C@@H]2CCCN(C(=O)C[C@H](N)CNS(=O)(=O)c3ccccc3OC)C2)nc2ccccc21 [Compound 324, N-((S)-2-amino-4-((R)-3-(1-(3-methoxypropyl)-1H-benzo[d]imidazol-2-yl)piperidin-1-yl)-4-oxobutyl)-2-methoxybenzenesulfonamide] | > 1000 nM |
| COCCCn1c([C@@H]2CCCN(C(=O)C[C@H](N)Cc3ccc4ccccc4c3)C2)nc2ccc([N+](=O)[O-])cc21 [Compound 114, (R)-3-amino-1-((R)-3-(1-(3-methoxypropyl)-6-nitro-1H-benzo[d]imidazol-2-yl)piperidin-1-yl)-4-(naphthalen-2-yl)butan-1-one] | > 1000 nM |
| CC(C)C[C@H](N)C(=O)N1CCCC(c2nc3ccccc3[nH]2)C1 (stereo partly drawn) [Compound 46, (2S)-1-(3-(1H-benzo[d]imidazol-2-yl)piperidin-1-yl)-2-amino-4-methylpentan-1-one] | > 1000 nM |
| CC(=O)NCCn1c([C@@H]2CCCN(C(=O)C[C@H](N)Cc3ccc(-c4ccnc(O)c4)cc3)C2)nc2ccccc21 [Compound 461, N-(2-(2-((R)-1-((R)-3-amino-4-(4-(2-hydroxypyridin-4-yl)phenyl)butanoyl)piperidin-3-yl)-1H-benzo[d]imidazol-1-yl)ethyl)acetamide] | 100 to 1000 nM |
| CC[C@@H](N)C(=O)N1CCCC(c2nc3ccccc3[nH]2)C1 (stereo partly drawn) [Compound 51, (2R)-1-(3-(1H-benzo[d]imidazol-2-yl)piperidin-1-yl)-2-aminobutan-1-one] | > 1000 nM |
| O=C(C1CCCN1)N1CCCC(c2nc3ccccc3[nH]2)C1 (stereo not shown) [Compound 45, (3-(1H-benzo[d]imidazol-2-yl)piperidin-1-yl)(pyrrolidin-2-yl)methanone] | > 1000 nM |

Next, values leading:

| IC50 | SMILES |
| --- | --- |
| 100 to 1000 nM | COCCCn1c([C@@H]2CCCN(C(=O)[C@@H]3CN(S(=O)(=O)c4ccc(OC)cc4)C[C@H]3N)C2)nc2ccccc21 [Compound 369, ((3R,4S)-4-amino-1-(4-methoxyphenylsulfonyl)pyrrolidin-3-yl)((R)-3-(1-(3-methoxypropyl)-1H-benzo[d]imidazol-2-yl)piperidin-1-yl)methanone] |
| 100 to 1000 nM | COCCCn1c([C@@H]2CCCN(C(=O)C[C@H](N)CNC(=O)c3ccc(-c4cc(Cl)ccc4Cl)o3)C2)nc2ccccc21 [Compound 276, N-((S)-2-amino-4-((R)-3-(1-(3-methoxypropyl)-1H-benzo[d]imidazol-2-yl)piperidin-1-yl)-4-oxobutyl)-5-(2,5-dichlorophenyl)furan-2-carboxamide] |
| 100 to 1000 nM | COCCCn1c([C@@H]2CCCN(C(=O)[C@@H]3CN(C(=O)c4cccnc4Oc4ccccc4)C[C@H]3N)C2)nc2ccccc21 [Compound 366, ((3R,4S)-4-amino-1-(2-phenoxynicotinoyl)pyrrolidin-3-yl)((R)-3-(1-(3-methoxypropyl)-1H-benzo[d]imidazol-2-yl)piperidin-1-yl)methanone] |
| > 1000 nM | COCCCn1c(C2CC(C)CN(C(=O)C[C@H](N)Cc3ccc4ccccc4c3)C2)nc2ccccc21 (stereo partly drawn) [Compound 246, (3R)-3-amino-1-(3-(1-(3-methoxypropyl)-1H-benzo[d]imidazol-2-yl)-5-methylpiperidin-1-yl)-4-(naphthalen-2-yl)butan-1-one] |
| < 100 nM | COCCCn1c([C@@H]2CCCN(C(=O)C[C@H](N)Cc3ccc(-c4cc[nH]c4)cc3)C2)nc2ccccc21 [Compound 152, (R)-4-(4-(1H-pyrrol-3-yl)phenyl)-3-amino-1-((R)-3-(1-(3-methoxypropyl)-1H-benzo[d]imidazol-2-yl)piperidin-1-yl)butan-1-one] |
| > 1000 nM | NC(=O)CCn1c([C@@H]2CCCN(C(=O)C[C@H](N)Cc3ccc(-c4ccc5c(c4)OCCO5)cc3)C2)nc2ccccc21 [Compound 484, 3-(2-((R)-1-((R)-3-amino-4-(4-(2,3-dihydrobenzo[b][1,4]dioxin-6-yl)phenyl)butanoyl)piperidin-3-yl)-1H-benzo[d]imidazol-1-yl)propanamide] |
| > 1000 nM | COCCCn1c([C@@H]2CCCN(C(=O)C[C@H](N)COCc3ccccc3)C2)nc2ccccc21 [Compound 88, (S)-3-amino-4-(benzyloxy)-1-((R)-3-(1-(3-methoxypropyl)-1H-benzo[d]imidazol-2-yl)piperidin-1-yl)butan-1-one] |
| 100 to 1000 nM | COCCCn1c([C@@H]2CCCN(C(=O)C[C@H](N)Cc3ccc(N4CCN(c5ccccc5)C(=O)C4)cc3)C2)nc2ccccc21 [Compound 233, 4-(4-((R)-2-amino-4-((R)-3-(1-(3-methoxypropyl)-1H-benzo[d]imidazol-2-yl)piperidin-1-yl)-4-oxobutyl)phenyl)-1-phenylpiperazin-2-one] |
| 100 to 1000 nM | CCOc1ccccc1NC(=O)NC[C@@H](N)CC(=O)N1CCC[C@@H](c2nc3ccccc3n2CCCOC)C1 [Compound 285, 1-((S)-2-amino-4-((R)-3-(1-(3-methoxypropyl)-1H-benzo[d]imidazol-2-yl)piperidin-1-yl)-4-oxobutyl)-3-(2-ethoxyphenyl)urea] |
| > 1000 nM | COCCCn1c([C@@H]2CCCN(C(=O)[C@@H]3CN(C(=O)c4ccc(C(=O)OC)cc4)C[C@H]3N)C2)nc2ccccc21 [Compound 422, methyl 4-((3S,4R)-3-amino-4-((R)-3-(1-(3-methoxypropyl)-1H-benzo[d]imidazol-2-yl)piperidine-1-carbonyl)pyrrolidine-1-carbonyl)benzoate] |
| > 1000 nM | COCCCn1c([C@@H]2CCCN(C(=O)[C@@H]3CN(S(=O)(=O)c4ccccc4)C[C@H]3N)C2)nc2ccccc21 [Compound 384, ((3R,4S)-4-amino-1-(phenylsulfonyl)pyrrolidin-3-yl)((R)-3-(1-(3-methoxypropyl)-1H-benzo[d]imidazol-2-yl)piperidin-1-yl)methanone] |
| 100 to 1000 nM | COCCCn1c([C@@H]2CCCN(C(=O)C[C@H](N)CNS(=O)(=O)c3ccc(Cl)cc3)C2)nc2ccccc21 [Compound 281, N-((S)-2-amino-4-((R)-3-(1-(3-methoxypropyl)-1H-benzo[d]imidazol-2-yl)piperidin-1-yl)-4-oxobutyl)-4-chlorobenzenesulfonamide] |
| 100 to 1000 nM | COCCCn1c([C@@H]2CCCN(C(=O)[C@@H]3CN(S(=O)(=O)c4cccc(OC)c4)C[C@H]3N)C2)nc2ccccc21 [Compound 357, ((3R,4S)-4-amino-1-(3-methoxyphenylsulfonyl)pyrrolidin-3-yl)((R)-3-(1-(3-methoxypropyl)-1H-benzo[d]imidazol-2-yl)piperidin-1-yl)methanone] |
| < 100 nM | COCCCn1c([C@@H]2CCCN(C(=O)C[C@H](N)Cc3ccc(-c4ccc(OC)cc4)cc3)C2)nc2ccccc21 [Compound 156, (R)-3-amino-4-(4′-methoxybiphenyl-4-yl)-1((R)-3-(1-(3-methoxypropyl)-1H-benzo[d]imidazol-2-yl)piperidin-1-yl)butan-1-one] |
| 100 to 1000 nM | COCCCn1c([C@@H]2CCCN(C(=O)C[C@H](N)Cc3ccc(-c4c(C)noc4C)cc3)C2)nc2ccccc21 [Compound 166, (R)-3-amino-4-(4-(3,5-dimethylisoxazol-4-yl)phenyl)-1-((R)-3-(1-(3-methoxypropyl)-1H-benzo[d]imidazol-2-yl)piperidin-1-yl)butan-1-one] |
| > 1000 nM | C[C@@H](N)C(=O)N1CCCC(c2nc3ccccc3[nH]2)C1 (stereo partly drawn) [Compound 50, (2R)-1-(3-(1H-benzo[d]imidazol-2-yl)piperidin-1-yl)-2-aminopropan-1-one] |
